# Source: PubChem BioAssay AID2658 (Sanford-Burnham Center for Chemical Genomics, 2010)
# Where “and” joins values, the source holds several entries; their conditions need not be identical. Identical values can stand only once. Calls of active or inactive are those of the source. How the calls were made is not given here.
# Target: Ubiquitin-conjugating enzyme E2 N (Homo sapiens) (UniProt P61088)
# Assay: Ubc13/Uev1a ubiquitination inhibitors, SAR follow-up, selectivity assay, biochemical, TR-FRET (AID 2658)
# Settings: Ubc13/Uev1a polyubiquitination, in vitro
# Chain of Ubiquitin-conjugating enzyme E2 N (Homo sapiens) (P61088 whole entry, looked up): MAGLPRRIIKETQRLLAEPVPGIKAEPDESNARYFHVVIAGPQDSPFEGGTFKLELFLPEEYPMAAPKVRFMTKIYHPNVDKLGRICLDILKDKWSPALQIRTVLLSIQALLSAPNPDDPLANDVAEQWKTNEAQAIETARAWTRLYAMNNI
row,IC50,Compound
1,> 100 µM (inactive),CCCCn1c(NC(=O)c2ccccc2Cl)c(C#N)c2nc3ccccc3nc21
2,> 100 µM (inactive),COc1ccccc1CCNC(=O)COC(=O)c1cc(-c2ccco2)nc2ccccc12
3,> 100 µM (inactive),COc1ccc(CNC(=O)COC(=O)c2cc(-c3ccco3)nc3ccccc23)cc1OC
4,78.4 µM,O=C(/C=C/c1cccs1)Nc1scc(-c2ccccc2)c1C(=O)O
5,> 100 µM (inactive),COC(=O)c1ccc(CNC(=O)COC(=O)c2cc(-c3ccco3)nc3ccccc23)cc1
6,25.8 µM and 23.3 µM,O=C(N/N=C/c1cccc(F)c1)c1cc(-c2ccco2)nc2ccccc12
7,> 100 µM (inactive),CCN(CC)CCNC(=O)c1cc(-c2ccco2)nc2ccccc12
8,> 100 µM (inactive),Clc1ccc2c(c1)C1C=CCC1C(c1ccccc1)N2 (centres undefined)
9,34.6 µM,COc1ccc(CNC(=O)COC(=O)c2cc(-c3ccco3)nc3ccccc23)cc1
10,> 100 µM (inactive),CC(=O)NC1C(=O)N(CCN2CCOCC2)c2ccc(F)cc21 (centres undefined)
11,> 100 µM (inactive),C/C(=N\OCc1nc2ccccc2c(=O)n1/N=C/c1ccc(Cl)cc1)c1ccccc1
12,> 100 µM (inactive),COc1ccccc1NC(=O)Cn1c(O)c(N=NC(=O)c2ccccc2O)c2ccccc21
13,> 100 µM (inactive),O=C1c2oc3ccccc3c(=O)c2C(c2ccccc2)N1c1nccs1 (centres undefined)
14,> 100 µM (inactive),COc1ccccc1CNC(=O)CCOC(=O)c1cc(-c2ccco2)nc2ccccc12
